The values that follow come from patent publication US11634393B2, “Substituted tolyl fungicides” (FMC CORPORATION, priority 2018, dated 2023).

For one data set, the system named is Phakopsora pachyrhizi. Put plainly: Test D: Asian soybean rust, spray on soybean seedlings, disease control rating. It counts as in vivo. The note with it: 100 = 100% disease control, 0 = no disease control relative to the controls; for pest or weed control at 10 ppm / Test D disease control rating: Rate 10 ppm. From the text:
(§1) General protocol for preparing test suspensions for Tests A-F: the test compounds were first dissolved in acetone in an amount equal to 3% of the final volume and then suspended at the desired concentration (in ppm) in acetone and purified water (50/50 mix by volume) containing 250 ppm of the surfactant PEG400 (polyhydric alcohol esters). The resulting test suspensions were then used in Tests A-F.
The test solution was sprayed to the point of run-off on soybean seedlings. The following day the seedlings were inoculated with a spore suspension of Phakopsora pachyrhizi (the causal agent of Asian soybean rust) and incubated in a saturated atmosphere at 22° C. for 24 h and then moved to a growth chamber at 22° C. for 8 days, after which time visual disease ratings were made.
(§2) A rating of 100 indicates 100% disease control and a rating of 0 indicates no disease control (relative to the controls). A dash (-) indicates the compound was not tested.

Data set [1] relates to Puccinia recondita f. sp. tritici. Description: Test B: wheat leaf rust, spray on wheat seedlings, disease control rating. Format: in vivo. The conditions noted are these: 100 = 100% disease control, 0 = no disease control relative to the controls; for pest or weed control at 10 ppm / Test B disease control rating: Rate 10 ppm.
Text: as §1
The test solution was sprayed to the point of run-off on wheat seedlings. The following day the seedlings were inoculated with a spore suspension of Puccinia recondita f. sp. tritici (the causal agent of wheat leaf rust) and incubated in a saturated atmosphere at 20° C. for 24 h, and then moved to a growth chamber at 20° C. for 7 days, after which time disease ratings were made.
as §2

By pest or weed control is commonly meant how far the test organism was held down. A high value points to a strong effect. Usually melting point stands for the temperature of the solid-liquid transition.

In the case of `COC(=O)NCc1cc(-c2cnn(-c3c(F)cc(C)cc3F)n2)ccc1C` [Compound 111], the melting point was 117 to 121 °C. This compound came in with a pest or weed control at 10 ppm in the data set on Phakopsora pachyrhizi (Phakopsora pachyrhizi, 216 h) of 100%. In data set [1] (Puccinia recondita, 192 h), the pest or weed control at 10 ppm was 99%.
The corresponding values for `COC(=O)NCc1cc(-c2cn(-c3c(F)cc(OC)cc3F)nn2)ccc1C` [Compound 130] are 146 to 150 °C, 0% and 68%.
The compound `COC(=O)NCc1cc(-c2ccn(-c3c(F)cc(C)cc3F)n2)ccc1C` [Compound 30] had a melting point of 130 to 131 °C. Also, the pest or weed control at 10 ppm in the data set on Phakopsora pachyrhizi (Phakopsora pachyrhizi, 216 h) stood at 100%. Further, in data set [1] (Puccinia recondita, 192 h), the pest or weed control at 10 ppm amounted to 98%.
In turn, `COC(=O)NCc1cc(-c2cnn(-c3c(F)cc(I)cc3F)n2)ccc1C` [Compound 116] came in with a melting point of 154 to 158 °C. In the data set with Phakopsora pachyrhizi (Phakopsora pachyrhizi, 216 h), the pest or weed control at 10 ppm is 100%. For the same compound, in data set [1] (Puccinia recondita, 192 h), the pest or weed control at 10 ppm is 100%.
Take `CCOc1cc(F)c(-n2ccc(-c3ccc(C)c(CNC(=O)OC)c3)n2)c(F)c1` [Compound 11, methyl N-[[5-[1-(4-ethoxy-2,6-difluorophenyl)-1H-pyrazol-3-yl]-2-methylphenyl]methyl]carbamate]: the melting point lay within 118 to 119 °C. This compound also displayed a pest or weed control at 10 ppm in the data set on Phakopsora pachyrhizi (Phakopsora pachyrhizi, 216 h) of 100%. The pest or weed control at 10 ppm in data set [1] (Puccinia recondita, 192 h) is 100%.
With `COC(=O)NCc1cc(-c2ncn(-c3c(F)cc(N)cc3F)n2)ccc1C` [Compound 106], the melting point fell in the range of 136 to 140 °C.
As for `COC(=O)NCc1cc(-c2cn(-c3c(Br)cc(OC)cc3Br)nn2)ccc1C` [Compound 128], the melting point lay within 167 to 171 °C. Moreover, the pest or weed control at 10 ppm in the data set with Phakopsora pachyrhizi (Phakopsora pachyrhizi, 216 h) turned out to be 0%. Besides, the pest or weed control at 10 ppm in data set [1] (Puccinia recondita, 192 h) was found to be 0%.
Compound `COC(=O)NCc1cc(-c2cnn(-c3c(F)cc(C4CC4)cc3F)n2)ccc1C` [Compound 113] gave a melting point of 107 to 111 °C. The pest or weed control at 10 ppm in the data set with Phakopsora pachyrhizi (Phakopsora pachyrhizi, 216 h) turned out to be 100%. Also, the pest or weed control at 10 ppm in data set [1] (Puccinia recondita, 192 h) worked out at 100%.
Turning to `COC(=O)NCc1cc(-c2cnn(-c3c(F)cc(C(F)(F)F)cc3F)n2)ccc1C` [Compound 141], the melting point is 138 to 142 °C. Further, in the data set on Phakopsora pachyrhizi (Phakopsora pachyrhizi, 216 h), the pest or weed control at 10 ppm came out at 100%. Moreover, in data set [1] (Puccinia recondita, 192 h), the pest or weed control at 10 ppm turned out to be 99%.
`COC(=O)NCc1cc(-c2cnn(-c3c(F)cc(C(C)C)cc3F)n2)ccc1C` [Compound 108, methyl N-[[5-[2-[2,6-difluoro-4-(1-methylethyl)phenyl]-2H-1,2,3-triazol-4-yl]-2-methylphenyl]methyl]carbamate] returned a melting point of 102 to 106 °C. The compound further displayed a pest or weed control at 2 ppm with Phakopsora pachyrhizi (Phakopsora pachyrhizi, 216 h, Rate 2 ppm) of 100%. In data set [1] (Puccinia recondita, 192 h, Rate 2 ppm), the pest or weed control at 2 ppm is 100%.
In turn, `COC(=O)NCc1cc(-c2cn(-c3c(F)cc(Cl)cc3F)nn2)ccc1C` [Compound 121, methyl N-[[5-[1-(4-chloro-2,6-difluorophenyl)-1H-1,2,3-triazol-4-yl]-2-methylphenyl]methyl]carbamate] had a melting point of 159 to 163 °C. Moreover, the pest or weed control at 10 ppm with Phakopsora pachyrhizi (Phakopsora pachyrhizi, 216 h) was 0%. The pest or weed control at 10 ppm in data set [1] (Puccinia recondita, 192 h) was determined as 68%.
`COC(=O)NCc1cc(-c2cn(-c3c(F)cc(N)cc3F)nn2)ccc1C` [Compound 131, methyl N-[[5-[1-(4-amino-2,6-difluorophenyl)-1H-1,2,3-triazol-4-yl]-2-methylphenyl]methyl]carbamate] registered a melting point of 194 to 198 °C.
Take `COC(=O)NCc1cc(-c2ccn(-c3c(F)cc(Cl)cc3Cl)n2)ccc1C` [Compound 51]: the pest or weed control at 10 ppm in the data set with Phakopsora pachyrhizi (Phakopsora pachyrhizi, 216 h) is 100%; in data set [1] (Puccinia recondita, 192 h) it was 100%.
As to `COC(=O)NCc1cc(-c2ccn(-c3c(F)cc(C(C)(C)O)cc3F)n2)ccc1C` [Compound 95], in the data set with Phakopsora pachyrhizi, the “Test D disease control rating” value came to 53%. Besides, in data set [1], the “Test B disease control rating” value stood at 0%.
For the compound `COC(=O)NCc1cc(-c2ccn(-c3c(C)cc(Cl)cc3C)n2)ccc1C` [Compound 49], the pest or weed control at 10 ppm stood at 99% in the data set on Phakopsora pachyrhizi (Phakopsora pachyrhizi, 216 h) and 68% in data set [1] (Puccinia recondita, 192 h).
For the compound `COC(=O)NCc1cc(-c2ccn(-c3c(F)cc(OC4COC4)cc3F)n2)ccc1C` [Compound 21], in the data set with Phakopsora pachyrhizi, the “Test D disease control rating” value was 100%. The “Test B disease control rating” value in data set [1] was 55%.
Regarding `COC(=O)NCc1cc(-c2ccn(-c3c(F)cc(OC(F)(F)F)cc3F)n2)ccc1C` [Compound 78, methyl N-[[5-[1-[2,6-difluoro-4-(trifluoromethoxy)phenyl]-1H-pyrazol-3-yl]-2-methylphenyl]methyl]carbamate], the pest or weed control at 10 ppm with Phakopsora pachyrhizi (Phakopsora pachyrhizi, 216 h) was 100%; in data set [1] (Puccinia recondita, 192 h) it was 100%.
As to `COC(=O)NCc1cc(-c2ccn(-c3c(F)cc(C4CC4(Cl)Cl)cc3F)n2)ccc1C` (centres unmarked) [Compound 88], in the data set with Phakopsora pachyrhizi, the “Test D disease control rating” value is reported as 100%. For the same compound, the “Test B disease control rating” value in data set [1] is 100%.
In the case of `COC(=O)NCc1cc(-c2ccn(-c3c(Cl)cc([N+](=O)[O-])cc3Cl)n2)ccc1C` [Compound 54], the pest or weed control at 10 ppm turned out to be 0% with Phakopsora pachyrhizi (Phakopsora pachyrhizi, 216 h) and 0% in data set [1] (Puccinia recondita, 192 h).
Turning to `COC(=O)NCc1cc(-c2ccn(-c3c(F)cc([N+](=O)[O-])cc3Cl)n2)ccc1C` [Compound 37], the pest or weed control at 10 ppm in the data set with Phakopsora pachyrhizi (Phakopsora pachyrhizi, 216 h) worked out at 0%; in data set [1] (Puccinia recondita, 192 h), 26%.
For `COC(=O)NCc1cc(-c2ccn(-c3c(F)cc(I)cc3F)n2)ccc1C` [Compound 8, methyl N-[[5-[1-(2,6-difluoro-4-iodophenyl)-1H-pyrazol-3-yl]-2-methylphenyl]methyl]carbamate], the pest or weed control at 10 ppm amounted to 100% in the data set on Phakopsora pachyrhizi (Phakopsora pachyrhizi, 216 h) and 100% in data set [1] (Puccinia recondita, 192 h).
As for `COC(=O)NCc1cc(-c2ccn(-c3c(Cl)cc(C(F)(C(F)(F)F)C(F)(F)F)cc3Cl)n2)ccc1C` [Compound 138], the “Test D disease control rating” value in the data set with Phakopsora pachyrhizi is 87%. Also, the “Test B disease control rating” value in data set [1] came out at 74%.
Take `COC(=O)NCc1cc(-c2ccn(-c3c(C)cc([N+](=O)[O-])cc3C)n2)ccc1C` [Compound 35]: the pest or weed control at 10 ppm was 0% in the data set with Phakopsora pachyrhizi (Phakopsora pachyrhizi, 216 h) and 0% in data set [1] (Puccinia recondita, 192 h).
Take `COC(=O)NCc1cc(-c2ccn(-c3c(Cl)cc(Br)cc3Cl)n2)ccc1C` [Compound 56]: the pest or weed control at 10 ppm was found to be 100% in the data set on Phakopsora pachyrhizi (Phakopsora pachyrhizi, 216 h) and 80% in data set [1] (Puccinia recondita, 192 h).
Regarding `COC(=O)NCc1cc(-c2ccn(-c3c(F)cc(C(C)=NOC(C)C)cc3F)n2)ccc1C` [Compound 86], the “Test D disease control rating” value in the data set on Phakopsora pachyrhizi is 100%. The “Test B disease control rating” value in data set [1] is on record as 99%.
In turn, `COC(=O)NCc1cc(-c2cnn(-c3c(F)cccc3F)n2)ccc1C` [Compound 112] yielded a melting point of 122 to 126 °C.
On to `COC(=O)NCc1cc(-c2ccn(-c3c(F)cc(NC(=O)OC)cc3F)n2)ccc1C` [Compound 24], for which the “Test D disease control rating” value with Phakopsora pachyrhizi is given as 75%. In addition, the “Test B disease control rating” value in data set [1] was found to be 0%.
As to `COC(=O)NCc1cc(-c2ccn(-c3c(F)cc(C4OCCCO4)cc3F)n2)ccc1C` [Compound 134], the pest or weed control at 10 ppm came out at 100% in the data set with Phakopsora pachyrhizi (Phakopsora pachyrhizi, 216 h) and 89% in data set [1] (Puccinia recondita, 192 h).
On to `COC(=O)NCc1cc(-c2ccn(-c3c(C)cc(Br)cc3C)n2)ccc1C` [Compound 48], for which the pest or weed control at 10 ppm in the data set on Phakopsora pachyrhizi (Phakopsora pachyrhizi, 216 h) stood at 99%; in data set [1] (Puccinia recondita, 192 h) it was 68%.
As to `CCON=C(C)c1cc(F)c(-n2ncc(-c3ccc(C)c(CNC(=O)OC)c3)n2)c(F)c1` [Compound 142], the “Test D disease control rating” value with Phakopsora pachyrhizi amounted to 100%. The “Test B disease control rating” value in data set [1] was determined as 86%.
Consider `COC(=O)NCc1cc(-c2ccn(-c3c(F)cc(C4CC4)cc3F)n2)ccc1C` [Compound 41, methyl N-[[5-[1-(4-cyclopropyl-2,6-difluorophenyl)-1H-pyrazol-3-yl]-2-methylphenyl]methyl]carbamate], for which the pest or weed control at 10 ppm with Phakopsora pachyrhizi (Phakopsora pachyrhizi, 216 h) was determined as 100%; in data set [1] (Puccinia recondita, 192 h), 100%.
For `COC(=O)NCc1cc(-c2ccn(-c3c(F)cc(OC(=O)OC)cc3F)n2)ccc1C` [Compound 17], in the data set with Phakopsora pachyrhizi, the “Test D disease control rating” value came out at 0%. Moreover, the “Test B disease control rating” value in data set [1] was 0%.
For `COC(=O)NCc1cc(-c2cnn(-c3c(F)cc(C(C)=O)cc3F)n2)ccc1C` [Compound 140], the “Test D disease control rating” value in the data set on Phakopsora pachyrhizi is recorded as 71%. Besides, the “Test B disease control rating” value in data set [1] was 41%.
With `COC(=O)NCc1cc(-c2ccn(-c3c(F)cc(OC4CCCCC4)cc3F)n2)ccc1C` [Compound 91], the “Test D disease control rating” value in the data set on Phakopsora pachyrhizi is recorded as 79%. Moreover, the “Test B disease control rating” value in data set [1] turned out to be 86%.
Take `COC(=O)NCc1cc(-c2ccn(-c3c(F)cc(C=NOC(C)C)cc3F)n2)ccc1C` [Compound 82]: the “Test D disease control rating” value in the data set with Phakopsora pachyrhizi was found to be 100%. The “Test B disease control rating” value in data set [1] stood at 95%.
As to `COC(=O)NCc1cc(-c2ccn(-c3c(F)cc(CF)cc3F)n2)ccc1C` [Compound 77], the pest or weed control at 10 ppm in the data set with Phakopsora pachyrhizi (Phakopsora pachyrhizi, 216 h) is 100%; in data set [1] (Puccinia recondita, 192 h) it was 100%.
For the compound `COC(=O)NCc1cc(-c2ccn(-c3c(Br)cccc3Br)n2)ccc1C` [Compound 58], the pest or weed control at 10 ppm in the data set on Phakopsora pachyrhizi (Phakopsora pachyrhizi, 216 h) turned out to be 100%; in data set [1] (Puccinia recondita, 192 h), 68%.
With `COC(=O)NCc1cc(-c2ccn(-c3c(Br)cc(I)cc3Br)n2)ccc1C` [Compound 136], the pest or weed control at 10 ppm was found to be 59% in the data set with Phakopsora pachyrhizi (Phakopsora pachyrhizi, 216 h) and 19% in data set [1] (Puccinia recondita, 192 h).
